The assay has as its system respiration in yeast (S288c and Hybrid A). The experiment in a line: Acetate ester production in mini-scale yeast fermentation with or without Antimycin A. It counts as cell-based, Saccharomyces cerevisiae. Conditions: 3 mg/L Antimycin A in medium; genetic backgrounds S288c and Hybrid A; FIG. 7B. An excerpt: One of the main functions of the IMP complex is processing of subunits of the respiration chain. Given the surprising finding that genetic inference with the IMP complex reduces the production of acetate esters (see Example 5 and 8), we wondered whether respiration in general modulates acetate ester production. First, yeasts strains were developed in which five genes known to be crucial for respiration (i.e. CBS1, COR1, COX9, QCR9 and COX12) were separately deleted and subsequently were used in a fermentation experiment to determine aroma production. All selected genes function independently from the IMP complex. […] More precisely, an experiment was performed in which acetate ester production of a yeast strain was measured in medium with or without supplementation of 3 mg/L Antimycin A, a chemical compound blocking the respiratory pathway (Kim et al 1999 J Am Chem Soc 121:4902). […]
Phenotyping of the individual segregants for IA production was performed using an in situ approach, and was conducted as follows: the segregants were streaked from the −80° C. stock on YPGlu 2% agar plates for 48 h at 30° C. […] After 96 h, the fermentation was ended, excess CO2 was once again released by brief opening of the vials, and the vials were measured using gas chromatography (see further). […]

On to Antimycin A, for which the “drop of isoamyl acetate production” value is on record as “about 50%”.

The values are drawn from patent US11186807B2, “Reducing acetate ester production in yeast” (VIB VZW, priority 2017, dated 2021).
